SMILES strings stand for the structures. Read-outs that look alike come from different tables or passages of the source.

As usually defined, the IC50 is the concentration that gives 50% inhibition.

One experiment deals with CSM14.1 cells. Nature of the experiment: Primary HTS assay: ATP content (ATPlite) of undifferentiated CSM14.1 cells challenged with thapsigargin. The note with it: for IC50: thapsigargin-induced death of undifferentiated CSM14.1, ATP content. The class given is cell-based, rat. An outline of the steps:
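Undifferentiated CSM14.1 cells, 3,000/well, cultured overnight at 32 °C, then test compounds at ~15 μg/mL final (1% DMSO) added. Thapsigargin ~15 μM final given after 2 h; ATPlite luminescence read after 24 h as survival surrogate, with 100 μM Salubrinal as maximum and DMSO as minimum.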

The test system of a further experiment is phospho-c-Jun. Description: Immunoblotting of thapsigargin-induced c-Jun phosphorylation in CSM14.1 cells. The note with it: immunoblotting with phospho-specific antibody, 10 μM, 25 μM hits. The format is cell-based, rat. The source says: After confirming the pathway selectivity of compounds, additional downstream assays can be performed to map the specific signal transduction pathway inhibited by the compounds. In this regard, various antibody reagents are commercially available for assessing the status of the three major pathways known to be activated by ER stress: (1) PERK, (2) Ire1, and (3) ATF6 (Xu et al., J. Clinical Invest., 115:2656-2664, 2005). Immunoblotting experiments can be performed to assess the expression or phosphorylation (using phospho-specific antibodies) of marker proteins in these pathways. […] CSM 14.1 cells were cultured with DMSO or with 25 μM of hit compounds for two hours, followed by treatment of thapsigargin (15 μM). Cell lysates were prepared and analyzed by SDS-PAGE/immunoblotting using antibodies specific for phospho-c-Jun, phospho-eIF2α, phospho-p38 MAPK, and tubulin (a loading control). CSM14.1 cells were cultured with either DMSO or one of the active compounds at 1, 5, and 10 μM, followed two hours later by 15 μM TG. After two hrs, cell lysates were prepared, normalized for protein content, and either analyzed by SDS-PAGE/immunoblotting using anti-p38-MAPK pan-reactive antibody or phospho-specific antibody with ECL-based detection, followed by densitometry analysis of x-ray films, normalizing phosphor-p38 MAPK relative to total p38 MAPK, or analyzed using a meso-scale instrument from MSD and a procedure in which total p38 MAPK is captured on plates, and the relative amounts of phosphorylated protein were determined using phospho-specific antibody (MSD catalog #K15112D1). […] Suppression of p38 MAPK and c-Jun phosphorylation was dose-dependent, and could not be explained by a decline in total levels of these proteins. […] Proteolytic processing of ATF6 was also not inhibited by our hit compounds. […] Screens of other libraries (such as the NIH compound collection) may yield cytoprotective compounds with different mechanisms.
1) CSM14.1 cells were plated at a density of 2×10^5 cells/well at 6 well dish (Greiner Bio one) in DMEM containing 2% FBS and antibiotics.
2) After overnight incubation, cells were treated by DMSO (0.5%) or compounds (25 μM) for two hours, followed by TG (15 uM) treatment.
3) After two hours, cells were lyzed in 250 uL of lysis buffer and subjected to protein concentration decision, and to SDS PAGE/Western blotting using antibodies specific for phospho p38 MAPK (Cell signaling 9211), p38 MAPK (Santa Cruz-C20), phospho c-Jun (Cell signaling 9164), c-Jun (Santa Cruz-SC 1694), phospho eIF2α (Cell signaling 3597) and α-tubulin.
CSM 14.1 cells were cultured with DMSO or with 25 μM of hit compounds for two hours followed by treatment with thapsigargin (15 μM). Cell lysates were prepared and analyzed by SDS-PAGE/immunoblotting using antibodies specific for: c-Jun, phosphor-c-Jun (ser 73), eIF2a, phosphor-eIF2a (ser 51), p38 MAPK, phosphor-p38 MAPK (Thr180/Tyr182), ATF-6, CHOP and tubulin (loading control). ER stress-induced activation of C-Jun and p38 MAPK is suppressed by the 11 hit compounds.
CSM cells were treated with two compounds at increasing doses. Pre-incubation time, thapsigargin treatment, cell extract preparation and immunoblotting protocols were as described previously.
In general terms: A western blot detects proteins with antibodies after separation by electrophoresis.

[1] abbreviates: one value given, read-out: IC50.
The mark [2] stands for this setting: first assay, read-out: IC50 (μM), first value.
The mark [3] stands for this setting: second assay (value in bold), read-out: IC50 (μM), value from a second assay.

With `CCN(CC)c1ccc(C2Nc3ccccc3NC3=C2C(=O)CC(c2ccccc2)C3)cc1` (stereo not shown) [Compound 5962123, 6-(4-diethylaminophenyl)-9-phenyl-5,6,8,9,10,11-hexahydrobenzo[c][1,5]benzodiazepin-7-one], the “Cytoprotective activity, stimulus Thapsigargin (Result)” value in the experiment on CSM14.1 cells (readout ATP & Annexin, CSM 14.1, compound ≦25 μM) is “+ (+indicates ≧50% rescue of cell viability relative to untreated cells not exposed to thapsigargin at compound concentration of ≦25 μM)”. For the same molecule, the half-maximal inhibitory concentration (IC50) with CSM14.1 cells (setting [1]) came to 7.5 ± 0.857 µM. The “Thapsigargin-induced phosphorylation of c-Jun” value in the experiment with phospho-c-Jun is “inhibits”.

Regarding `COc1ccc(C2CC(=O)C3=C(C2)Nc2ccccc2NC3c2ccccc2C(F)(F)F)cc1OC` (stereo not shown) [Compound 6237735], the IC50 in the experiment on CSM14.1 cells (setting [2]) worked out at 17.2 ± 0.471 µM; in the experiment on CSM14.1 cells (setting [1]) it was 12.5 ± 0.186 µM; in the experiment on CSM14.1 cells (setting [3]) it was 12.5 ± 0.186 µM. In the experiment on phospho-c-Jun, the “Thapsigargin-induced phosphorylation of c-Jun” value is “dose-dependent decrease”.

For the molecule `COc1ccc(C2CC(=O)C3=C(C2)Nc2ccccc2NC3c2cccc(Oc3ccccc3)c2)cc1OC` (stereo not shown) [Compound 6239507], the half-maximal inhibitory concentration (IC50) amounted to 13.9 ± 0.26 µM in the experiment with CSM14.1 cells (setting [2]), 10.2 ± 1.62 µM in the experiment on CSM14.1 cells (setting [1]) and 10.2 ± 1.62 µM with CSM14.1 cells (setting [3]).

Values taken from patent publication US20080293699A1, “Inhibitors of thapsigargin-induced cell death” (priority 2007, published 2008).
